Data published in US6432969B1, “N-(substituted glycyl)-2 cyanopyrrolidines, pharmaceutical compositions containing them and their use in inhibiting dipeptidyl peptidase-IV” (Novartis AG, priority 2000, dated 2002).

What was measured:
[1] = target: T1, DPP-IV activity from human colonic carcinoma cell (Caco-2) extracts (Homo sapiens, UniProt P27487); test: Caco-2 DPP-IV Assay; format: biochemical; details: Caco-2 cell extract, substrate H-Ala-Pro-pNA, 8-point dose-response
T1 construct: Cell extract is prepared from cells solubilized in 10 mM Tris HCl; host or cells: Caco-2, differentiated to induce DPP-IV expression
Protocol: The human colonic carcinoma cell line Caco-2 was obtained from the American Type Culture Collection (ATCC HTB 37). Differentiation of the cells to induce DPP-IV expression was accomplished as described by Reisher, et al. in an article entitled “Increased expression of intestinal cell line Caco-2” in Proc. Natl. Acad. Sci., Vol. 90, pgs. […] Cell extract is prepared from cells solubilized in 10 mM Tris HCl, 0.15 M NaCl, 0.04 t.i.u.aprotinin, 0.5% nonidet-P40, pH 8.0, which is centrifuged at 35,000 g for 30 min. at 4° C. to remove cell debris. The assay is conducted by adding 20 μg solubilized Caco-2 protein, diluted to a final volume of 125 μl in assay buffer (25 mM Tris HCl pH 7.4, 140 mM NaCl, 10 mM KCl, 1% bovine serum albumin) to microtiter plate wells. After a 60 min. incubation at room temperature, the reaction is initiated by adding 25 μl of 1 mM substrate (H-Alanine-Proline-pNA; pNA is p-nitroaniline). […] A standard curve of free p-nitroaniline is generated using 0-500 μM solutions of free pNA in assay buffer. The curve generated is linear and is used for interpolation of substrate consumption (catalytic activity in nmoles substrate cleaved/min).
The potency of the test compounds as DPP-IV inhibitors, expressed as IC50, is calculated from 8-point, dose-response curves using a 4-parameter logistic function.

[2] = target: T2, DPP-IV activity in human plasma (Homo sapiens, UniProt P27487); test: Human plasma DPP-IV assay; format: biochemical; details: substrate H-Gly-Pro-AMC
T2 construct: from tissue; host or cells: human plasma
Protocol: (§1) Briefly, 5 μl of plasma are added to 96-well flat-bottom micortiter plates (Falcon), followed by the addition of 5 μl of 80 mM MgCl2 in incubation buffer (25 mMHEPES, 140 mM NaCl, 1% RIA-grade BSA, pH 7.8). After a 60 min. incubation at room temperature, the reaction is initiated by the addition of 10 μl of incubation buffer containing 0.1 mM substrate (H-Glycine-Proline-AMC; AMC is 7-amino 4-methylcoumarin). The plates are covered with aluminum foil (or kept in the dark) and incubated at room temperature for 20 min. […] A fluorescence-concentration curve of free AMC is generated using 0-50 μM solutions of AMC in assay buffer. The curve generated is linear and is used for interpolation of substrate consumption (catalytic activity in nmoles substrate cleaved/min). As with the previous assay, the potency of the test compounds as DPP-IV inhibitors, expressed as IC50, is calculated from 8-point, dose-response curves using a 4 parameter logistic function.

[3] = target: T3, DPP-IV activity in rat plasma (Rattus norvegicus, UniProt P14740); test: Rat plasma DPP-IV assay; format: biochemical; details: substrate H-Gly-Pro-AMC
T3 construct: from tissue; host or cells: rat plasma
Protocol: as §1

T2 sequence (P27487 39-766 limits assumed): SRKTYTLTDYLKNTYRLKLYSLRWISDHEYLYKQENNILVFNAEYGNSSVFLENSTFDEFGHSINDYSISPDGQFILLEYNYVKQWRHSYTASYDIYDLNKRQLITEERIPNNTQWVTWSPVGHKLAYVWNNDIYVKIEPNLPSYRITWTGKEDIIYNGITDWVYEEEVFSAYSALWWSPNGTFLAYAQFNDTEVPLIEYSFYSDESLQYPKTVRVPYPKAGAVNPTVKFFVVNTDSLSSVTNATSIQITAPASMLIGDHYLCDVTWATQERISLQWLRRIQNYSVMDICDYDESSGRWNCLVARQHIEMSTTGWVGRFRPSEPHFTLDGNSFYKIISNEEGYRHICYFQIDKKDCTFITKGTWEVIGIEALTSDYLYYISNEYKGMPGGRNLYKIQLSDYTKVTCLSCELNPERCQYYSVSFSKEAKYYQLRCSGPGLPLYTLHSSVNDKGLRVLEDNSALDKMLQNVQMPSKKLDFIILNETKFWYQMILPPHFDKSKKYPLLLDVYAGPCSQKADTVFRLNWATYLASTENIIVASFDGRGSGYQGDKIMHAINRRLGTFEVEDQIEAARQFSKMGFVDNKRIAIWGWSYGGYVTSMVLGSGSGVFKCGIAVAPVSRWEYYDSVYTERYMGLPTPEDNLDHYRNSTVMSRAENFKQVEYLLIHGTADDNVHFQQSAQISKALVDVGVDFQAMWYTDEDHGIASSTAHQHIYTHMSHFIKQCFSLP
T1 sequence (P27487 whole entry): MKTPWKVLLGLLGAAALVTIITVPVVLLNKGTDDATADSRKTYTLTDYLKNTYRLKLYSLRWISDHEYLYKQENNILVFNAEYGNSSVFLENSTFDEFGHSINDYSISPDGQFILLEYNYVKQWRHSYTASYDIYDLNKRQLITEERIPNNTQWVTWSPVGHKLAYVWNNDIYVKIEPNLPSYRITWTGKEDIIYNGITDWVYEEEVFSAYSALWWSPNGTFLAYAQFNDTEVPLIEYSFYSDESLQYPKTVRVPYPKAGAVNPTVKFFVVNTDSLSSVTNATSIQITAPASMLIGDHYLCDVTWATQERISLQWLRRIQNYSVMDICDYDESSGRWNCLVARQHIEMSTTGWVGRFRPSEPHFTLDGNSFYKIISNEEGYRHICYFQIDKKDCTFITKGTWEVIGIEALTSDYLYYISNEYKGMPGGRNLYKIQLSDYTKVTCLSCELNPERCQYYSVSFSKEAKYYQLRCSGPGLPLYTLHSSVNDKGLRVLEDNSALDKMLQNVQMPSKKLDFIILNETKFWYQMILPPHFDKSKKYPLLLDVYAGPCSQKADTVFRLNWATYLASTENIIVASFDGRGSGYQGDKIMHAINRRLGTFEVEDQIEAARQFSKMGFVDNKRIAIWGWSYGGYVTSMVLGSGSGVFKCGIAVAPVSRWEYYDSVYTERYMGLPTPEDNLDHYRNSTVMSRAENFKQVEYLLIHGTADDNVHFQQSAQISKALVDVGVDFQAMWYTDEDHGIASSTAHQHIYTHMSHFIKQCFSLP
T3 sequence (P14740 38-767 limits assumed): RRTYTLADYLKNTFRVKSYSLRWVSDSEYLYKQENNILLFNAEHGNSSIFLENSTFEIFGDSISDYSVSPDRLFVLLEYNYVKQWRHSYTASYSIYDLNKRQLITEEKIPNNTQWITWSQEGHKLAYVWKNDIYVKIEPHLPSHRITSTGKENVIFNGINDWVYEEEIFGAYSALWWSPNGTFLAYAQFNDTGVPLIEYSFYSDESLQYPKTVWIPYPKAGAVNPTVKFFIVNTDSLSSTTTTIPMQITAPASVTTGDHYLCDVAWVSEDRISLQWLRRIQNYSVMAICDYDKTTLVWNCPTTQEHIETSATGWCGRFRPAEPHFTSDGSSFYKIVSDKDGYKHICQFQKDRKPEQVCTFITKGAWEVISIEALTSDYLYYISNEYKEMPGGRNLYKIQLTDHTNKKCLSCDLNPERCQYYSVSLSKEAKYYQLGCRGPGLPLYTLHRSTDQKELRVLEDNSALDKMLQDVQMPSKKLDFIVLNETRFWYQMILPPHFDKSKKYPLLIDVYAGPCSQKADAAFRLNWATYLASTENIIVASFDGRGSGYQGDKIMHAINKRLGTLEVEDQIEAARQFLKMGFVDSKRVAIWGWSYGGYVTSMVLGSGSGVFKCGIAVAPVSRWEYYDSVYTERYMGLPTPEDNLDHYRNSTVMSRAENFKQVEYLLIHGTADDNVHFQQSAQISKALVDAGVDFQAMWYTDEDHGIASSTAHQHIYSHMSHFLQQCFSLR

| Compound | IC50 [1] [nM] | IC50 [2] [nM] | IC50 [3] [nM] | melting point [°C] |
| --- | --- | --- | --- | --- |
| N#C[C@@H]1CCCN1C(=O)CN[C@H]1CC[C@H](NS(=O)(=O)c2cccs2)CC1 [Ex. 2AA] | 56 | 33 | 16 | – |
| CC(C)(CNc1ccc(C(F)(F)F)cn1)NCC(=O)N1CCC[C@H]1C#N [Ex. 2B, 1-[[[2-[(5-trifluoromethyl-2-pyridinyl)amino]-1,1-dimethylethyl]amino]acetyl]-2-cyano-(S)-pyrrolidine] | 5 | 59 | 11 | – |
| CC(C)(Cc1ccc(F)cc1)NCC(=O)N1CCC[C@H]1C#N [Ex. 2BB] | 19 | 38 | 13 | – |
| Cc1ccc(C(=O)NCC(C)(C)NCC(=O)N2CCC[C@H]2C#N)cc1 [Ex. 2C, 1-[[[2-[(4-methylbenzoyl)amino]-1,1-dimethylethyl]amino]acetyl]-2-cyano-(S)pyrrolidine] | 99 | 50 | 25 | 40 to 42 |
| CC(C)(CNc1ncccc1Cl)NCC(=O)N1CCC[C@H]1C#N [Ex. 2D, 1-[[[2-[(3-chloro-2-pyridinyl)amino]-1,1-dimethylethyl]amino]acetyl]-2-cyano-(S)-pyrrolidine] | 44 | 93 | 71 | – |
| CCCCCC12CCC(NCC(=O)N3CCC[C@H]3C#N)(CC1)CC2 [Ex. 2DD, 1-[[(4-pentylbicyclo[2.2.2]oct-1-yl)amino]acetyl]-2-cyano-(S)-pyrrolidine] | 156 | 66 | 38 | – |
| CC(C)(CNc1cc(C(F)(F)F)ccn1)NCC(=O)N1CCC[C@H]1C#N [Ex. 2E, 1-[[[2-[(4-trifluoromethyl-2-pyridinyl)amino]-1,1-dimethylethyl]amino]acetyl]-2-cyano-(S)-pyrrolidine] | 27 | 27 | 19 | 38 to 40 |
| CC(C)(CNc1ncc(Cl)cc1Cl)NCC(=O)N1CCC[C@H]1C#N [Ex. 2F, 1-[[[2-[(3,5-dichloro-2-pyridinyl)amino]-1,1-dimethylethyl]amino]acetyl]-2-cyano-(S)-pyrrolidine] | 45 | 46 | 37 | – |
| CC(C)(CNc1ncccc1C(F)(F)F)NCC(=O)N1CCC[C@H]1C#N [Ex. 2G, 1-[[[2-[(3-trifluoromethyl-2-pyridinyl)amino]-1,1-dimethylethyl]amino]acetyl]-2-cyano-(S)-pyrrolidine] | – | – | 111 | – |
| N#C[C@@H]1CCCN1C(=O)CN[C@H]1CC[C@H](Oc2cccc(C(F)(F)F)c2)CC1 [Ex. 2GG, 1-[[[4-[(3-trifluoromethyl)phenoxy]cyclohexyl]amino]acetyl]-2-cyano-(S)-pyrrolidine] | 22 | 20 | 10 | – |
| N#C[C@@H]1CCCN1C(=O)CN[C@H]1CC[C@H](Oc2cccc(Cl)c2)CC1 [Ex. 2HH] | 18 | 18 | 10 | – |
| CC(C)(CNC(=O)c1ccc(Cl)cc1)NCC(=O)N1CCC[C@H]1C#N [Ex. 2I, 1-[[[2-[(4-chlorobenzoyl)amino]-1,1-dimethylethyl]amino]acetyl]-2-cyano-(S)-pyrrolidine] | 80 | 73 | 31 | – |
| N#C[C@@H]1CCCN1C(=O)CNC1CCN(C(=O)Nc2ccc(Cl)cc2)CC1 [Ex. 2II, 1-[[[1-[[(4-chlorophenyl)amino]carbonyl]-4-piperidinyl]amino]acetyl]-2-cyano-(S)-pyrrolidine] | 44 | 37 | 12 | – |
| CC(C)N(C(=O)NCC(C)(C)NCC(=O)N1CCC[C@H]1C#N)C(C)C [Ex. 2J, 1-[[[2-[[(diisopropylamino)carbonyl]amino]-1,1-dimethylethyl]amino]acetyl]-2-cyano-(S)-pyrrolidine] | 41 | 421 | 49 | – |
| CC(C)N(C(=O)N1CCC(NCC(=O)N2CCC[C@H]2C#N)CC1)C(C)C [Ex. 2JJ, 1-[[[1-[(diisopropylamino)carbonyl]-4-piperidinyl]amino]acetyl]-2-cyano-(S)-pyrrolidine] | 94 | 45 | 5 | – |
| CC(C)(CNC(=O)Nc1ccc(Cl)cc1)NCC(=O)N1CCC[C@H]1C#N [Ex. 2K, 1-[[[2-[[[(4-chlorophenyl)amino]carbonyl]amino]-1,1-dimethylethyl]amino]acetyl]-2-cyano-(S)-pyrrolidine] | 56 | 305 | 38 | – |
| N#C[C@@H]1CCCN1C(=O)CNC1CCN(c2nc(-c3ccccc3)cs2)CC1 [Ex. 2KK, 1-[[[1-(4-phenyl-2-thiazolyl)-4-piperidinyl]amino]acetyl]-2-cyano-(S)-pyrrolidine] | 28 | 38 | 12 | 141 to 143 |
| N#C[C@@H]1CCCN1C(=O)CNC1CCN(c2nc(-c3ccc(Cl)cc3)cs2)CC1 [Ex. 2LL] | 61 | 649 | 123 | – |
| COc1ccc(-c2csc(N3CCC(NCC(=O)N4CCC[C@H]4C#N)CC3)n2)cc1 [Ex. 2MM] | 22 | 71 | 58 | – |

Next, values leading:

| IC50 [1] [nM] | IC50 [2] [nM] | IC50 [3] [nM] | melting point [°C] | Compound |
| --- | --- | --- | --- | --- |
| 8 | 8 | 9 | – | N#C[C@@H]1CCCN1C(=O)CN[C@H]1CC[C@H](Nc2nccc(C(F)(F)F)n2)CC1 [Ex. 2O, 1-[[[4-[[(4-trifluoromethyl)-2-pyrimidinyl]amino]cyclohexyl]amino]acetyl]-2-cyano-(S)-pyrrolidine] |
| 15 | 16 | 11 | – | N#C[C@@H]1CCCN1C(=O)CN[C@H]1CC[C@H](Nc2ncccc2C(F)(F)F)CC1 [Ex. 2P, 1-[[4-[[(3-trifluoromethyl-2-pyridinyl)amino]cyclohexyl]amino]acetyl]-2-cyano-(S)-pyrrolidine] |
| 30 | 38 | 38 | – | N#C[C@@H]1CCCN1C(=O)CN[C@H]1CC[C@H](NS(=O)(=O)c2ccc(Cl)cc2)CC1 [Ex. 2Q, 1-[[[[4-[(4-chlorophenyl)sulfonyl]amino]cyclohexyl]amino]acetyl]-2-cyano-(S)-pyrrolidine] |
| 31 | 26 | 37 | – | N#C[C@@H]1CCCN1C(=O)CN[C@H]1CC[C@H](NC(=O)c2ccc(Cl)cc2)CC1 [Ex. 2T, 1-[[[4-[(4-chlorobenzoyl)amino]cyclohexyl]amino]acetyl]-2-cyano-, (S)-pyrrolidine] |
| 66 | 122 | 88 | – | N#C[C@@H]1CCCN1C(=O)CN[C@H]1CC[C@H](NS(=O)(=O)c2ccc(C(F)(F)F)cc2)CC1 [Ex. 2Z, 1-[[[4-[[[(4-trifluoromethyl)phenyl]sulfonyl]amino]cyclohexyl]amino]acetyl]-2-cyano-(S)-pyrrolidine] |
| 35 | 77 | 31 | – | N#C[C@@H]1CCCN1C(=O)CNC1CCN(C(=O)c2ccc(Cl)cc2)CC1 [Ex. 4B] |
| 83 | 68 | 48 | – | N#C[C@@H]1CCCN1C(=O)CNC1CCN(S(=O)(=O)c2ccc(C(F)(F)F)cc2)CC1 [Ex. 4C] |
| 114 | 104 | 59 | – | N#C[C@@H]1CCCN1C(=O)CNC1CCN(S(=O)(=O)c2ccccc2)CC1 [Ex. 4D, 1-[[(1-phenylsulfonyl-4-piperidinyl)amino]acetyl]-2-cyano-(S)-pyrrolidine] |
| 36 | 5 | 4 | – | N#C[C@@H]1CCCN1C(=O)CN[C@H]1CC[C@H](NC(=O)c2ccc(F)cc2)CC1 [Ex. 5] |
